Key:
RARγ = molecular target: T1, RARγ (Homo sapiens, UniProt P13631); assay: ligand binding assay, RARγ; conditions: second entry of cell, read-out: RAR Bind. Ki (nM) γ
T1 sequence (P13631 1-454): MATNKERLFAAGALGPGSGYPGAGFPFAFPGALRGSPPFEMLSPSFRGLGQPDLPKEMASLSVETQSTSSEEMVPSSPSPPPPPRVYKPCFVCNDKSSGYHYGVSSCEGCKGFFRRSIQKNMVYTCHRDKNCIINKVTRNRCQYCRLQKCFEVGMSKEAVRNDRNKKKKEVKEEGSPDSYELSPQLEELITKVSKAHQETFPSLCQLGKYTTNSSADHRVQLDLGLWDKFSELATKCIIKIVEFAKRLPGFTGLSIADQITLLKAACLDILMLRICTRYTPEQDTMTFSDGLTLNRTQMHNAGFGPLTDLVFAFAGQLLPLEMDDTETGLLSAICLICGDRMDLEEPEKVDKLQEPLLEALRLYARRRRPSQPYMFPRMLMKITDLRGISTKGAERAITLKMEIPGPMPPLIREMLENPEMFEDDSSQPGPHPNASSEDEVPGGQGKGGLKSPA
Excerpt: (§1) A holoreceptor transactivation assay and a ligand binding assay which measure the antagonist/agonist like activity of the compounds of the invention, or their ability to bind to the several retinoid receptor subtypes, respectively, are described in published PCT Application No. WO WO93/11755 (particularly on pages 30-33 and 37-41) published on Jun. 24, 1993, the specification of which is also incorporated herein by reference. A detailed experimental procedure for holoreceptor transactivations has been described by Heyman et al. Cell 68, 397-406, (1992); Allegretto et al. J. Biol. Chem. 268, 26625-26633, and Mangelsdorf et al. The Retinoids: Biology, Chemistry and Medicine, pp 319-349, Raven Press Ltd., New York, which are expressly incorporated herein by reference. The results obtained in this assay are expressed in EC50 numbers, as they are also in the chimeric receptor transactivation assay. The results of ligand binding assay are expressed in Kd numbers. (See Cheng et al. Biochemical Pharmacology Vol. 22 pp 3099-3108, expressly incorporated herein by reference.)

RARα = molecular target: T2, RARα (Homo sapiens, UniProt P10276); assay: ligand binding assay, RARα; conditions: second entry of cell, read-out: RAR Bind. Ki (nM) α
T2 sequence (P10276 1-462): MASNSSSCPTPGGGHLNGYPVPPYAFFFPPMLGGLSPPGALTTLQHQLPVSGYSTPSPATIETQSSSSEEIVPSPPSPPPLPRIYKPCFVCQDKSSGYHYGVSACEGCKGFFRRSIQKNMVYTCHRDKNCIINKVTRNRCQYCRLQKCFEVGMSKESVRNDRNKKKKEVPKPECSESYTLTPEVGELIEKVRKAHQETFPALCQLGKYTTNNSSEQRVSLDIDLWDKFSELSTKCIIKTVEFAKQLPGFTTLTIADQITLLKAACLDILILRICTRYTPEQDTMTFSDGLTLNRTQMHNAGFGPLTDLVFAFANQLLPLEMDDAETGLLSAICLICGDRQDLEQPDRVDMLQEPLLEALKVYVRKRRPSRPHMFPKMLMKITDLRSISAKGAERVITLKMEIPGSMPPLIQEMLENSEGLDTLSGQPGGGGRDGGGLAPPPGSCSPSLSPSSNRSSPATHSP
Excerpt: as §1

RXRγ = molecular target: T3, RXRγ (UniProt P28705); assay: receptor transactivation assay, RXRγ; assay type: cell-based; parameters: RXR Trans; other: RXRγ; first entry of cell; conditions: for EC50: first entry of cell, read-out: RXR Trans. EC50 (nM) γ; for RXR Trans. γ, number in parentheses after EC50: parenthesised number, not defined in the patent
T3 sequence (P28705 1-463): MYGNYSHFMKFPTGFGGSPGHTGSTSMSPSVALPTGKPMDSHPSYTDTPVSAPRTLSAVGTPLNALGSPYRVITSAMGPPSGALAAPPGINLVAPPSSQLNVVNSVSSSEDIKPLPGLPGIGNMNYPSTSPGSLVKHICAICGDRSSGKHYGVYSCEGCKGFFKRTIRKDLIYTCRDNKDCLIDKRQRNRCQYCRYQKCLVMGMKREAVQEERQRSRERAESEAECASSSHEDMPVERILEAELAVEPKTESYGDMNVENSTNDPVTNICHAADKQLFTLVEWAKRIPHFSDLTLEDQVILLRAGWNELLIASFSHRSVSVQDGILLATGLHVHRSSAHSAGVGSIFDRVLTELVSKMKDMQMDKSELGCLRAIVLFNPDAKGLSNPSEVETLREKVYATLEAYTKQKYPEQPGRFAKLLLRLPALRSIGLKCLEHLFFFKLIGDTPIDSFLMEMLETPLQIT
Excerpt: as §1

SMILES | Ki (RARγ) [nM] | Ki (RARα) [nM] | EC50 (RXRγ) [nM] | RXR Trans. γ, number in parentheses after EC50 (RXRγ)
CCCCC(O)CCc1cc([C@@]2(C)C[C@H]2/C=C/C(C)=C/C(=O)O)cc2c1OCC2(C)C (stereo partly drawn) [Compound 38, (E)-3-((E)-2-{(1S,2S)-2-[7-(3-Hydroxy-heptyl)-3,3-dimethyl-2,3-dihydro-benzofuran-5-yl]-2-methyl-cyclopropyl}-vinyl)-but-2-enoic acid] | > 10000 | > 10000 | 7680 | 142
CCCCC(=O)CCc1cc([C@@]2(C)C[C@H]2/C=C/C(C)=C/C(=O)O)cc2c1OCC2(C)C [Compound 40] | > 10000 | 11000 | 395 | 94

— US6720423B2, “Dihydrobenzofuran and dihydrobenzothiophene 2,4-pentadienoic acid derivatives having selective activity for retinoid X (RXR) receptors” (Allergan, Inc., priority 2002, dated 2004)
